Data set [1] is described as follows: Stability of ^133La-PSMA radioconjugates in human serum, by radio-TLC. It counts as in vitro ADME. As to conditions: for stability in serum: ^133La-radioconjugate, up to / after 24 h; for HS stability 1 h / HS stability 4 h / HS stability 24 h: human serum/PBS pH 7, 37 °C, tested thrice. The procedure:
Apparent molar activity (AMA) was quantified by titration with the macropa chelator in combination with radio-TLC. 3–10 µL [^133La]LaCl3 (4–7 MBq, approximately 10 MBq at EOB) were added to a buffered solution (ammonium acetate 200 mM, pH 6, total volume 100 µL) containing different chelator concentrations: 0.20 µM, 0.40 µM, 0.80 µM and 1.60 µM. These solutions were mixed at 500 rpm for 15 min at room temperature. The formed [^133La]La-macropa complex was analyzed using silica gel coated aluminum plates and developed with 50 mM EDTA as eluent. While the free lanthanum runs to the front, the complex remains at the start.
To assess the serum stability of both radiolabeled compounds, 75 µL of the ^133La-PSMA radioconjugates, accounting for ca. 50 MBq ^133La, were added to 75 µL of PBS buffer pH 7 and 150 µL of human serum and mixed at 500 rpm for 24 h at 37 °C. Silica gel plates were spotted after 1 h, 4 h and 24 h to evaluate the evolution of the complex stability. Each ^133La-PSMA radioligand and its molar activity was tested thrice.

Assay in data set [2]: as above
Format: in vitro ADME. As to conditions: after 24 h in human serum, radio-TLC (Fig. 11).

For data set [3] the following is noted: 200 MBq; ref Afshar-Oromieh et al. [2016]; cited from earlier work.

Results on 4 compounds are retold here after publication PMC11327230, “Scalability study on [^133La]LaCl3 production with a focus on potential clinical applications” (EJNMMI Radiopharmacy and Chemistry, 2024).

Consider `O=C(O)CCC(NC(=O)NC(CCCCNC(=O)C(Cc1ccc2ccccc2c1)NC(=O)C1CCC(CNC(=O)CCCCn2cc(COc3cc(CN4CCOCCOCCN(Cc5cccc(C(=O)O)n5)CCOCCOCC4)nc(C(=O)O)c3)nn2)CC1)C(=O)O)C(=O)O` (centres unmarked) [[^133La]La-mcp-M-PSMA], for which the stability in serum in data set [1] (molar activity not stated in the sentence) was more than 99%. Also, the stability in serum in data set [1] (molar activity not stated in the sentence, listed as mcp-M-PSMA) was more than 99.20 ± 0.08%. Moreover, in data set [1] (molar activity 40 GBq/µmol), the “HS stability 1 h” value came out at 100 ± 0%, the “HS stability 4 h” value worked out at 100 ± 0% and the “HS stability 24 h” value stood at 99.57 ± 0.25%. Further, in data set [1] (molar activity 80 GBq/µmol), the “HS stability 1 h” value is given as 99.80 ± 0.01%, the “HS stability 4 h” value is listed as 99.83 ± 0.08% and the “HS stability 24 h” value is reported as 99.20 ± 0.08%.
Regarding `[133La+3].[Cl-].[Cl-].[Cl-]` [[^133La]LaCl3], the “free [^133Ba]Ba^2+ as share of the total radioactivity” value in data set [2] is reported as 1.1%.
Consider `O=C(O)CC[C@H](NC(=O)N[C@@H](CCCCNC(=O)[C@H](Cc1ccc2ccccc2c1)NC(=O)[C@H]1CC[C@H](CNC(=O)CN2CCN(CC(=O)O)CCN(CC(=O)O)CCN(CC(=O)O)CC2)CC1)C(=O)O)C(=O)O` [[^133La]La-PSMA-617], for which the stability in serum in data set [1] (molar activity not given) was more than 98.5 ± 0.3%. For the same compound, in data set [1] (molar activity 40 GBq/µmol), the “HS stability 1 h” value was found to be 99.37 ± 0.12%, the “HS stability 4 h” value is 99.40 ± 0.01% and the “HS stability 24 h” value is on record as 97.37 ± 0.17%. In data set [1] (molar activity 80 GBq/µmol), the “HS stability 1 h” value was 99.57 ± 0.12%, the “HS stability 4 h” value is reported as 99.60 ± 0.08% and the “HS stability 24 h” value is on record as 98.5 ± 0.3%.
As to `O=C([O-])CN(CCN(CC(=O)[O-])Cc1cc(CCC(=O)NCCCCCC(=O)NCCCC[C@H](NC(=O)N[C@@H](CCC(=O)O)C(=O)O)C(=O)O)ccc1[O-])Cc1cc(CCC(=O)O)ccc1[O-].[68Ga+3].[OH3+]` [[^68Ga]Ga-PSMA-11], in data set [3], the effective dose was 4.7 mSv.
